From BindingDB's records for doi:10.7270/Q2X63KDM (Burnham Center For Chemical Genomics, 2010)

target: Intestinal-type alkaline phosphatase (Homo sapiens, UniProt P09923); assay: inhibition of human intestinal alkaline phosphatase – biochemical, dose response (AID 488876)
Sequence (P09923 whole entry): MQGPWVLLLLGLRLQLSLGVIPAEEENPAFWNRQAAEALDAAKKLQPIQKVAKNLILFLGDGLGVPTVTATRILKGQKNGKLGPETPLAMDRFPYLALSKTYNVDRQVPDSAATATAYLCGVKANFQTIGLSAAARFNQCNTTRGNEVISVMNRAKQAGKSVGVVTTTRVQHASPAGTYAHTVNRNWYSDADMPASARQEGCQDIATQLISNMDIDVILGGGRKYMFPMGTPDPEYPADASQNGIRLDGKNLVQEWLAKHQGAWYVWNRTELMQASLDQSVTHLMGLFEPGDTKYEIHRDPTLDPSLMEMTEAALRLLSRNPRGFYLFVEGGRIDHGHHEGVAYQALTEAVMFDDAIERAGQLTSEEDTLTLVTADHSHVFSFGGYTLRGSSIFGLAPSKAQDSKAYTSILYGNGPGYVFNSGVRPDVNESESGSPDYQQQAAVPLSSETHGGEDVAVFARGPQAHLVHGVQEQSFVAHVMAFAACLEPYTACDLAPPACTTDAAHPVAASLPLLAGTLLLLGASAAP

| SMILES | IC50 |
| --- | --- |
| CC1NON=C1C(=O)NN=CC1=CC(=O)C(=O)C=C1 (centres undefined) [4-Methyl-furazan-3-carboxylic acid (3,4-dihydroxy-benzylidene)-hydrazide] | 14 µM |
| NS(=O)(=O)c1cc(C(=O)NNC2=c3ccccc3=NC2=O)ccc1Cl [2-chloro-5-[[(2-oxoindol-3-yl)amino]carbamoyl]benzenesulfonamide] | > 100 µM |
| Oc1ccc(C=Nn2c(O)csc2=S)c(O)c1O [3-[[(E)-[2,3-bis(oxidanyl)-4-oxidanylidene-cyclohexa-2,5-dien-1-ylidene]methyl]amino]-2-sulfanylidene-1,3-thiazolidin-4-one] | > 100 µM |
| Cc1ccc(Cl)c2c1NC(=O)/C2=C1/NC(=S)NC1=O | > 100 µM |
| Nc1nnc(CC(=O)N/N=C/C2C=C([N+](=O)[O-])C=C(Br)C2=O)s1 (centres undefined) [2-(5-azanyl-1,3,4-thiadiazol-2-yl)-N'-[(E)-(5-bromanyl-3-nitro-6-oxidanylidene-cyclohexa-2,4-dien-1-ylidene)methyl]ethanehydrazide] | > 100 µM |
| C#CCOCCOCCOCCNc1nc(N2CCN(C(=O)CCCCCCCCCCNC(=O)Cn3cc(CCCCCN)nn3)CC2)nc(N2CCN(C(=O)CCCCCCCCCCNC(=O)Cn3cc(C[C@@H](C)O)nn3)CC2)n1 [KG-TG] | > 100 µM |
| COc1cc(C=CC(=O)CC(=O)C=Cc2ccc(O)cc2)ccc1O [demethoxycurcumin] | > 100 µM |
| C#CCOCCOCCOCCNc1nc(N2CCN(C(=O)CCCCCCCCCCNC(=O)[C@H]([C@@H](C)CC)n3cc(CCCCN=C(N)N)nn3)CC2)nc(N2CCN(C(=O)CCCCCCCCCCNC(=O)[C@@H]([C@H](C)O)n3cc(C)nn3)CC2)n1 [GT-RI] | 86.3 µM |
| Cc1ccc(/C=C2\SC(=S)N(/N=C/C3C=C([N+](=O)[O-])C=CC3=O)C2=O)o1 (centres undefined) [(5Z)-5-[(5-methylfuran-2-yl)methylidene]-3-[[(E)-(3-nitro-6-oxocyclohexa-2,4-dien-1-ylidene)methyl]amino]-2-sulfanylidene-1,3-thiazolidin-4-one] | 80 µM |
| COc1cc(C=Nn2c(O)csc2=S)ccc1O [3-[[(E)-(3-methoxy-4-oxidanylidene-cyclohexa-2,5-dien-1-ylidene)methyl]amino]-2-sulfanylidene-1,3-thiazolidin-4-one] | 21.3 µM |

Other lines, results leading:

| IC50 | SMILES |
| --- | --- |
| > 100 µM | O=C(Nn1c(O)csc1=S)C(=O)Nn1c(O)csc1=S [SMR000349781] |
| > 100 µM | O=C1C=CC(C=NNC(=S)Nc2ccccc2[N+](=O)[O-])C=C1O (centres undefined) [MLS000417596] |
| 14.3 µM | C#CCOCCOCCOCCNc1nc(N2CCN(C(=O)CCCCCCCCCCNC(=O)[C@@H](CCSC)n3cc(CCO)nn3)CC2)nc(N2CCN(C(=O)CCCCCCCCCCNC(=O)[C@H]([C@@H](C)CC)n3cc(CCCCCN)nn3)CC2)n1 [MLS002153719] |
| 4.34 µM | O=C1C=CC(/C=C/c2nc(O)c([N+](=O)[O-])c(=O)[nH]2)C=C1O (centres undefined) [SMR000524347] |
